From ChEMBL document CHEMBL1221247, “Oxidative stimuli-responsive nanoprodrug of camptothecin kills glioblastoma cells” (2010)
Calls of active or inactive are those of the source. The rule behind the calls is not given here.

Experiments:
U-87MG ATCC = assay: Cytotoxicity against human U87MG cells at 250 nM after 6 days; type: functional, cell-based
[1] = Cytotoxicity against human U87MG cells after 6 days; type: functional, U-87MG ATCC; details: U-87 MG, 144 h, read-out: LD50 (the source's name)

CC[C@@]1(OC(=O)OCCOCCOCCOCCOC(=O)CCCC[C@@H]2CCSS2)C(=O)OCc2c1cc1n(c2=O)Cc2cc3ccccc3nc2-1
Activity (U-87MG ATCC): Active | CC50 [1]: 20 nM

CC[C@@]1(O)C(=O)OCc2c1cc1n(c2=O)Cc2cc3ccccc3nc2-1 [CAMPTOTHECIN]
Activity (U-87MG ATCC): Active | CC50 [1]: 20 nM
